ChEMBL document CHEMBL1130470, “Novel inhibitors of the prenylated protein methyltransferase reveal distinctive structural requirements” (Bioorg Med Chem Lett, 1997)

Assay: In vitro inhibitory activity against prenylated protein methyltransferase (PPMTase), activity expressed as Ki(inhibitory constant)
Parameters: species or system Rattus norvegicus

With `CC(C)=CCC/C(C)=C/CC/C(C)=C/CSc1c(Cl)cccc1C(=O)O` as the compound, how does the Ki read?
Its Ki is over 50 µM.

With `CC(C)=CCC/C(C)=C/CC/C(C)=C/CC/C(C)=C/CSc1ccccc1C(=O)O` as the compound, how does the Ki read?
Its Ki is over 50 µM.

With `CC(C)=CCC/C(C)=C/CC/C(C)=C/CSc1ccc(F)cc1C(=O)O` as the compound, how does the Ki read?
Its Ki is 6.3 µM.

Which Ki does the source give for `CC(C)=CCC/C(C)=C/CC/C(C)=C/CSc1ccc(Cl)cc1C(=O)O` here?
Its Ki is 8.5 µM.

For `CC(C)=CCC/C(C)=C/CC/C(C)=C/CSc1cc(F)ccc1C(=O)O`, which Ki is on record?
Its Ki is 23 µM.

For `CC(C)=CCC/C(C)=C/CC/C(C)=C/CSc1cc(Cl)ccc1C(=O)O`, which Ki is on record?
The Ki was 28 µM.

With `CC(C)=CCC/C(C)=C/CSc1ccccc1C(=O)O` as the compound, how does the Ki read?
Its Ki is over 50 µM.

Which Ki does the source give for `COC(=O)c1ccccc1SC/C=C(\C)CC/C=C(\C)CCC=C(C)C` here?
Its Ki is over 50 µM.

With `CC(C)=CCC/C(C)=C/CC/C(C)=C/CSc1ccccc1C(=O)O` [SALIRASIB] as the compound, how does the Ki read?
The Ki was 2.8 µM.
